The nature of data set [1]: Solution reaction heat of chemiluminescent reaction started with 1N KOH/MeOH. The class given is physicochemical. On the procedure:
Reaction heat and chemiluminescent efficiency relating to chemiluminescent reaction of the peroxides (Chemical formula A to Chemical formula L) were measured. Further, the amount of imidazole formed that indicates generation efficiency of singlet oxygen generated by this reaction was measured.
(§1) Measurement of reaction heat: heat generated by above-mentioned compounds was measured by a differential thermal analyzer.

Data set [2] is described as follows: Solid-state reaction heat by differential thermal analyzer (DSC-50). The settings on record: for Solid reaction heat: solid state, heated to 80-180° C. The class given is physicochemical. On the procedure:
as §1
Heat measurement of a chemiluminescent system peroxide in the solid state was conducted using a differential thermal analyzer as follows: 2 to 3 mg of the peroxide was weighed, filled into an aluminum capsule, and heated gradually to 80-180° C. by DSC-50 (Shimadzu Corporation) to measure the generated heat.
Measurement of reaction heat: heat generated from above-mentioned compounds was measured by the differential thermal analyzer in accordance with above-mentioned [Measurement I]. Thermal measurement of a dioxetane compound in the solid state was carried out as follows: 2 to 3 mg of the dioxetane compound was weighed, filled into an aluminum capsule, and heated gradually to 80-180° C. by DSC-50 (Shimadzu Corporation) to measure the generated heat.

Data set [3] concerns established cell line from human large intestine cancer. Description: MTT cytotoxicity assay (anticancer effect). The class given is cell-based. The settings on record: for viability at 1 µM / viability at 10 µM / viability at 100 µM: Homo sapiens, read-out: Survival rate of cancer cells; for viability at 1 µM / viability at 10 µM / viability at 100 µM / Survival rate of cancer cells: 48 hours incubation; for anticancer effect compared to MMC: concentration of 100 μM/L; for Survival rate of cells: 100 μM, MTT assay. On the procedure:
Cytotoxicity was determined as shown below using MTT method proposed by Mosmann et al. (Mosmann, T.; Rapid colorimetric assay for cellular growth and survival: application proliferation and cytotoxicity assays. J. Immunol. Meth. 65: 55-63, 1983). An established cell line from human large intestine cancer was adjusted on a 10% FCS-containing RPMI 1640 culture solution to have 5×10^3 cells/[…], plated in a 96-well microplate, and incubated for 48 hours. Then, the resultant was added with […] of a peroxide, and incubated under a 5% CO2 condition at 37° C. for 48 hours to determine cytotoxicity by MTT assay^1. MTT assay: Upon completion of the incubation, […] of MTT reagent (5 mg/ml in PBS) was added to each well, and then the formazan left on the bottom of the plate was added with 0.04N HCl to dissolve in isopropanol. OD was measured at a test wavelength and at a reference wavelength of 630 nm.
Survival rate in percentage was calculated by the following equation: Survival rate=(OD test value/OD reference value)×100 (%)

A word on the melting point: it is the temperature of the solid-liquid transition. On to `OOC1(c2ccccc2)N=C(c2ccccc2)N=C1c1ccccc1` (centres unmarked) [Chemical formula A, 4-Hydroperoxy-2,4,5-triphenyl-4H-isoimidazole], for which the melting point is 108 to 110 °C (dec.). For the same compound, the “Solution Reaction heat” value in data set [1] worked out at 53.8 kcal/mol. Moreover, the Solid reaction heat in data set [2] (peroxides) is recorded as 18.7 kcal/mol. Also, the viability at 1 µM in data set [3] (anticancer agent 1 μM/ml) was determined as 100%. In addition, the viability at 10 µM in data set [3] (anticancer agent 10 μM/ml) was found to be 100%. In data set [3] (anticancer agent 100 μM/ml), the viability at 100 µM stood at 78.3%.
`CN(C)c1ccc(C2=NC(OO)(c3ccc(F)cc3)C(c3ccc(F)cc3)=N2)cc1` (centres unmarked) [Chemical formula B, 4,5-Bis(4-fluorophenyl)-4-hydroperoxy-2-(4-dimethylaminophenyl)-4H-isoimidazole]: the melting point is 125 to 128 °C (dec.). The “Solution Reaction heat” value in data set [1] came to 66.3 kcal/mol. The Solid reaction heat in data set [2] (peroxides) worked out at 61.0 kcal/mol. Moreover, the viability at 1 µM in data set [3] (anticancer agent 1 μM/ml) was determined as 100%. Besides, the viability at 10 µM in data set [3] (anticancer agent 10 μM/ml) came to 93.7%. Further, the viability at 100 µM in data set [3] (anticancer agent 100 μM/ml) was determined as 37%.
Consider `OOC1(c2ccccc2)N=C(c2ccc(O)cc2)N=C1c1ccccc1` (centres unmarked) [Chemical formula C, 4-Hydroperoxy-2-(4-hydroxyphenyl)-4,5-diphenyl-4H-imidazole], for which the melting point was 125 to 127 °C (dec.). The compound also showed a Solid reaction heat in data set [2] (peroxides) of 53.6 kcal/mol. Further, the viability at 1 µM in data set [3] (anticancer agent 1 μM/ml) turned out to be 91.9%. The viability at 10 µM in data set [3] (anticancer agent 10 μM/ml) amounted to 82.2%. The viability at 100 µM in data set [3] (anticancer agent 100 μM/ml) was found to be 11.1%. In addition, the “anticancer effect compared to MMC” value in data set [3] is listed as “comparable to the commercially available MMC”.
The compound `OOC1(c2ccccc2)N=C(c2cccc(O)c2)N=C1c1ccccc1` (centres unmarked) [Chemical formula D] displayed a Solid reaction heat in data set [2] (peroxides) of 47.6 kcal/mol. Moreover, the viability at 1 µM in data set [3] (anticancer agent 1 μM/ml) is 93.3%. Moreover, the viability at 10 µM in data set [3] (anticancer agent 10 μM/ml) was 92.2%. For the same compound, in data set [3] (anticancer agent 100 μM/ml), the viability at 100 µM amounted to 71.2%.
In the case of `OOC1(c2ccccc2)N=C(c2ccccc2O)N=C1c1ccccc1` (centres unmarked) [Chemical formula E, 4-Hydroperoxy-2-(2-hydroxyphenyl)-4,5-diphenyl-4H-isoimidazole], the viability at 10 µM in data set [3] (anticancer agent 10 μM/ml) is 88.1%. Also, the viability at 100 µM in data set [3] (anticancer agent 100 μM/ml) is 11.8%. In addition, the “anticancer effect compared to MMC” value in data set [3] is given as “comparable to the commercially available MMC”.
For the compound `OOC1(c2cccc(O)c2)N=C(c2ccccc2)N=C1c1cccc(O)c1` (centres unmarked) [Chemical formula F, 4-Hydroperoxy-4,5-bis(3-hydroxyphenyl)-2-phenyl-4H-isoimidazole], in data set [3] (anticancer agent 10 μM/ml), the viability at 10 µM was 87.4%. Moreover, the viability at 100 µM in data set [3] (anticancer agent 100 μM/ml) amounted to 42.2%.
In the case of `OOC1(c2ccc3c(c2)OCCOCCOCCOCCO3)N=C(c2ccccc2)N=C1c1ccc2c(c1)OCCOCCOCCOCCO2` (centres unmarked) [Chemical formula G, Bis(crown ether)iophineperoxide], in data set [3] (anticancer agent 10 μM/ml), the viability at 10 µM came out at 87.2%. Moreover, in data set [3] (anticancer agent 100 μM/ml), the viability at 100 µM is 48.2%.
With `Nc1ccc(C2=NC(OO)(c3ccccc3)C(c3ccccc3)=N2)cc1` (centres unmarked) [Chemical formula H, 2-(4-Aminophenyl)-4-hydroperoxy-4,5-diphenyl-4H-isoimidazole], the “Solution Reaction heat” value in data set [1] was 46.0 kcal/mol. For the same compound, in data set [2] (peroxides), the Solid reaction heat was determined as 35.3 kcal/mol. For the same compound, in data set [3] (anticancer agent 1 μM/ml), the viability at 1 µM turned out to be 100%. The viability at 10 µM in data set [3] (anticancer agent 10 μM/ml) worked out at 97.5%. Also, the viability at 100 µM in data set [3] (anticancer agent 100 μM/ml) came out at 87.4%.
In turn, `CC(C)(C)[Si](C)(C)OOC1(c2ccccc2)N=C(c2ccccc2)N=C1c1ccccc1` (centres unmarked) [Chemical formula I, 4-t-Butyldimethylsilylperoxy-2,4,5-triphenyl-4H-isoimidazole] returned a melting point of 93.5 to 96 °C. In addition, the Solid reaction heat in data set [2] (peroxides) was 91.4 kcal/mol. Moreover, the viability at 1 µM in data set [3] (anticancer agent 1 μM/ml) amounted to 97.2%. Further, the viability at 10 µM in data set [3] (anticancer agent 10 μM/ml) is 95.9%. The viability at 100 µM in data set [3] (anticancer agent 100 μM/ml) came to 60.6%.
For `O=[N+]([O-])c1ccc(C2=NC(OO)(c3ccccc3)C(c3ccccc3)=N2)cc1` (centres unmarked) [Chemical formula J], the “Solution Reaction heat” value in data set [1] is given as 48.7 kcal/mol. The compound further came in with a Solid reaction heat in data set [2] (peroxides) of 52.3 kcal/mol.
Regarding `O=Cc1ccc(C2=NC(OO)(c3ccccc3)C(c3ccccc3)=N2)cc1` (centres unmarked) [Chemical formula K, 2-(4-Formylphenyl)-4-hydroperoxy-4,5-diphenyl-4H-isoimidazole], in data set [1], the “Solution Reaction heat” value was 22.4 kcal/mol. The compound also registered a Solid reaction heat in data set [2] (peroxides) of 15.0 kcal/mol.
`Cc1cc(C)c(C2=NC(OO)(c3ccccc3)C(c3ccccc3)=N2)c(C)c1` (centres unmarked) [Chemical formula L, 4-Hydroperoxy-2-(2′,4′,6′-trimethylphenyl)-4,5-diphenyl-4H-isoimidazole]: the “Solution Reaction heat” value in data set [1] is 54.0 kcal/mol. In addition, in data set [2] (peroxides), the Solid reaction heat is recorded as 50.5 kcal/mol.
The compound `COc1ccc(C2(OC)OOC23C2CC4CC(C2)CC3C4)cc1` (centres unmarked) [Chemical formula M, 3-(2′-Spiroadamantane)-4-methoxy-4-(4″-methoxy)phenyl-1,2-dioxetane] returned a Solid reaction heat in data set [2] (dioxetanes) of 68.8 kcal/mol. For the same compound, the “Survival rate of cells” value in data set [3] was 55%.
For `COc1cccc(C2(OC)OOC23C2CC4CC(C2)CC3C4)c1` (centres unmarked) [Chemical formula N, 3-(2′-Spiroadamantane)-4-methoxy-4-(3″-methoxy)phenyl-1,2-dioxetane], in data set [2] (dioxetanes), the Solid reaction heat amounted to 66.8 kcal/mol. In addition, the “Survival rate of cells” value in data set [3] is listed as 67%.
`OOC1(c2ccccc2)N=C(c2ccc(C3=NC(OO)(c4ccccc4)C(c4ccccc4)=N3)cc2)N=C1c1ccccc1` (centres unmarked) [Chemical formula O] registered a generation heat in data set [2] of 47.1 kcal/mol.
Take `CC(C)(C)[Si](C)(C)OOC1(c2ccccc2)N=C(c2ccc(C3=NC(OO[Si](C)(C)C(C)(C)C)(c4ccccc4)C(c4ccccc4)=N3)cc2)N=C1c1ccccc1` (centres unmarked) [Chemical formula P]: in data set [2], the generation heat stood at 147 kcal/mol.
In turn, `OOC1(c2ccccc2)N=C(c2cccc(C3=NC(OO)(c4ccccc4)C(c4ccccc4)=N3)c2)N=C1c1ccccc1` (centres unmarked) [Chemical formula Q] gave a generation heat in data set [2] of 30.5 kcal/mol.
Consider `CC(C)(C)[Si](C)(C)OOC1(c2ccccc2)N=C(c2cccc(C3=NC(OO[Si](C)(C)C(C)(C)C)(c4ccccc4)C(c4ccccc4)=N3)c2)N=C1c1ccccc1` (centres unmarked) [Chemical formula R], for which the generation heat in data set [2] was determined as 143 kcal/mol.
As to `CO[C@@]12[C@H](COC(N)=O)C3=C(C(=O)C(C)=C(N)C3=O)N1C[C@@H]1N[C@@H]12` [MMC, mitomycin C, reference compound], the results for the “Survival rate of cancer cells” value in data set [3] (anticancer agent 1 μM/ml), in data set [3] (anticancer agent 10 μM/ml) and in data set [3] (anticancer agent 100 μM/ml) were 65.0%, 28.0% and 14.5%, respectively.

These data come from patent US20070112061A1, “Heat- or singlet oxygen-generating agents and cancer treatment compositions comprising organic peroxide or chemiluminescent compound” (priority 2004, published 2007).
